Measured values from patent publication US20220211783A1, “GMCI AND DDRI COMBINATION THERAPY FOR TREATING CANCER” (Candel Therapeutics, Inc., priority 2019, published 2022).

Tests used:
lung cancer cells = test: Double-stranded DNA breaks by H2AX-Ser139 staining, confocal microscopy; format: cell-based; settings: 6 hours after addition of AZD1775 (IC50 concentration) and/or GCV
[1] = test system: lung cell line e.g., A549, A427, H2030; test: Cell viability assay (vital dye such as Presto Blue, fluorescence) of GMCI, AZD1775 and their combination; format: cell-based

C=CCn1c(=O)c2cnc(Nc3ccc(N4CCN(C)CC4)cc3)nc2n1-c1cccc(C(C)(C)O)n1 [AZD1775]
Double-stranded DNA breaks (lung cancer cells): occur
H2AX(Ser139) staining (lung cancer cells; versus untreated cells): large increase in H2AX staining
cell viability (fluorescence normalized to samples that received no treatment) ([1]; Day 4, AZD1775 at its IC50 concentration or half of its IC50 concentration, GMCI = AdV-tk 100 MOI + ganciclovir 5 μg/ml): cytotoxic activity
EC50 ([1]; stated as the concentration used in the lung cell line, half the IC50 given as 40 nM, read-out: EC50 concentration of the drug): 80 nM
